# Assay results as given in PubChem BioAssay AID246 (DTP/NCI, 2004).
# Several values for one entry are separate records, joined by “and”; a condition that tells them apart may be missing. Equal values may be shown once. Toxic doses and inconclusive results are not listed.
# Test system: BDF1 mice, P1081 chloroleukemia ip, survival T/C
# Assay: NCI In Vivo Anticancer Drug Screen. Data for tumor model P1081 Chloroleukemia (intraperitoneal) in B6D2F1 (BDF1) mice
# Conditions: endpoint: mean survival time, higher = longer survival
# Procedure: The antitumor activity of compounds was measured in mice bearing transplantable tumors. Survival or tumor size were measured and the results are expressed as the measurement made in the treated group (T) divided by the measurement made in the vehicle treated control group (C). The tumor model used in this assay is P1081 Chloroleukemia (intraperitoneal) in B6D2F1 (BDF1) mice
# [1] = dose: 25.0 mg/kg/injection, schedule: Q01DX Z (ip), vehicle: carboxymethylcellulose (CMC)
# [2] = dose: 50.0 mg/kg/injection, schedule: Q01DX Z (ip), vehicle: carboxymethylcellulose (CMC)
# [3] = dose: 100.0 mg/kg/injection, schedule: Q01DX Z (ip), vehicle: carboxymethylcellulose (CMC)
# [4] = dose: 1.0 mg/kg/injection, schedule: Q01DX Z (ip), vehicle: saline
# [5] = dose: 6.25 mg/kg/injection, schedule: Q01DX Z (ip), vehicle: carboxymethylcellulose (CMC)
# [6] = dose: 10.0 mg/kg/injection, schedule: Q01DX010 (ip), vehicle: saline
# [7] = dose: 12.5 mg/kg/injection, schedule: Q01DX Z (ip), vehicle: carboxymethylcellulose (CMC)
# [8] = dose: 20.0 mg/kg/injection, schedule: Q01DX010 (ip), vehicle: saline
# [9] = dose: 0.5 mg/kg/injection, schedule: Q01DX Z (ip), vehicle: saline
# [10] = dose: 50.0 mg/kg/injection, schedule: Q01DX010 (ip), vehicle: saline
# [11] = dose: 100.0 mg/kg/injection, schedule: Q01DX010 (ip), vehicle: saline
# [12] = dose: 200.0 mg/kg/injection, schedule: Q01DX010 (ip), vehicle: saline
# [13] = dose: 400.0 mg/kg/injection, schedule: Q01DX010 (ip), vehicle: saline
# [14] = dose: 6.25 mg/kg/injection, schedule: Q01DX Z (sc), vehicle: steriod suspending solution
# [15] = dose: 12.5 mg/kg/injection, schedule: Q01DX Z (sc), vehicle: steriod suspending solution
# [16] = dose: 25.0 mg/kg/injection, schedule: Q01DX Z (sc), vehicle: steriod suspending solution
# [17] = dose: 50.0 mg/kg/injection, schedule: Q01DX Z (sc), vehicle: steriod suspending solution
# [18] = dose: 100.0 mg/kg/injection, schedule: Q01DX Z (sc), vehicle: steriod suspending solution
compound,measurement,setting,value
Nc1nc(SCc2ccccc2)c2[nH]cnc2n1,T/C,"dose: 4.7 mg/kg/injection, schedule: Q01DX Z (ip), vehicle: carboxymethylcellulose (CMC)",91 % of control
same,T/C,"dose: 8.0 mg/kg/injection, schedule: Q01DX010 (ip), vehicle: saline",110 % of control and 116 % of control
same,T/C,"dose: 9.4 mg/kg/injection, schedule: Q01DX Z (ip), vehicle: carboxymethylcellulose (CMC)",90 % of control
same,T/C,"dose: 16.0 mg/kg/injection, schedule: Q01DX010 (ip), vehicle: saline",116 % of control and 105 % of control
same,T/C,"dose: 18.75 mg/kg/injection, schedule: Q01DX Z (ip), vehicle: carboxymethylcellulose (CMC)",100 % of control
same,T/C,"dose: 32.0 mg/kg/injection, schedule: Q01DX010 (ip), vehicle: saline",110 % of control and 122 % of control
same,T/C,"dose: 64.0 mg/kg/injection, schedule: Q01DX010 (ip), vehicle: saline",105 % of control
C[C@@H]1C[C@H]2CC[C@H](O2)[C@H](C)C(=O)O[C@@H](C)C[C@@H]2CC[C@@H](O2)[C@@H](C)C(=O)O[C@H](C)C[C@H]2CC[C@H](O2)[C@H](C)C(=O)O[C@@H](C)C[C@@H]2CC[C@@H](O2)[C@@H](C)C(=O)O1,T/C,[1],107 % of control
same,T/C,[2],109 % of control
same,T/C,[3],100 % of control
same,T/C,"dose: 200.0 mg/kg/injection, schedule: Q01DX Z (ip), vehicle: carboxymethylcellulose (CMC)",93 % of control
O=NN(CCCl)C(=O)NCCCl,T/C,[4],95 % of control
same,T/C,"dose: 2.0 mg/kg/injection, schedule: Q01DX Z (ip), vehicle: saline",112 % of control and 96 % of control
same,T/C,"dose: 3.13 mg/kg/injection, schedule: Q01DX010 (ip), vehicle: saline",220 % of control
same,T/C,"dose: 4.0 mg/kg/injection, schedule: Q01DX Z (ip), vehicle: saline",114 % of control and 116 % of control
same,T/C,"dose: 6.25 mg/kg/injection, schedule: Q01DX010 (ip), vehicle: saline",290 % of control and 300 % of control
same,T/C,"dose: 8.0 mg/kg/injection, schedule: Q01DX Z (ip), vehicle: saline",118 % of control
same,T/C,"dose: 12.5 mg/kg/injection, schedule: Q01DX010 (ip), vehicle: saline",150 % of control
same,T/C,"dose: 16.0 mg/kg/injection, schedule: Q01DX Z (ip), vehicle: saline",92 % of control
Cn1c(N)nc2nc[nH]c2c1=S,T/C,"dose: 1.6 mg/kg/injection, schedule: Q01DX Z (ip), vehicle: carboxymethylcellulose (CMC)",92 % of control
same,T/C,"dose: 3.1 mg/kg/injection, schedule: Q01DX Z (ip), vehicle: carboxymethylcellulose (CMC)",95 % of control
same,T/C,[5],95 % of control and 98 % of control
same,T/C,[6],120 % of control and 100 % of control
same,T/C,[7],96 % of control and 102 % of control
same,T/C,[8],105 % of control
same,T/C,[1],96 % of control and 100 % of control and 105 % of control
same,T/C,[2],98 % of control and 104 % of control
same,T/C,[3],98 % of control and 102 % of control
O=C(Nc1ccc(C2=NCCN2)cc1)c1ccc(C(=O)Nc2ccc(C3=NCCN3)cc2)c(Cl)c1,T/C,"dose: 1.8 mg/kg/injection, schedule: Q01DX Z (ip), vehicle: water",97 % of control
same,T/C,"dose: 7.5 mg/kg/injection, schedule: Q01DX Z (ip), vehicle: water",97 % of control
same,T/C,"dose: 60.0 mg/kg/injection, schedule: Q01DX Z (ip), vehicle: water",86 % of control
C[C@]12CC[C@H](OC3OC(CO)C(O)C(O)C3O)C[C@H]1CC[C@@H]1[C@@H]2CC[C@]2(C)[C@@H](C3=CCOC3=O)CC[C@]12O (stereo partly drawn),T/C,[9],94 % of control
same,T/C,[4],96 % of control
same,T/C,"dose: 31.0 micrograms/kg/injection, schedule: Q01DX Z (ip), vehicle: saline",101 % of control
same,T/C,"dose: 63.0 micrograms/kg/injection, schedule: Q01DX Z (ip), vehicle: saline",98 % of control
same,T/C,"dose: 125.0 micrograms/kg/injection, schedule: Q01DX Z (ip), vehicle: saline",104 % of control
same,T/C,"dose: 250.0 micrograms/kg/injection, schedule: Q01DX Z (ip), vehicle: saline",104 % of control
same,T/C,"dose: 500.0 micrograms/kg/injection, schedule: Q01DX Z (ip), vehicle: saline",110 % of control
Cc1cc2nc3c(=O)[nH]c(=O)nc-3n(CC(O)C(O)C(O)C(O)CO)c2cc1C (stereo not drawn),T/C,[10],88 % of control and 100 % of control
same,T/C,[11],88 % of control and 90 % of control
same,T/C,[12],90 % of control and 100 % of control
same,T/C,[13],100 % of control
C[C@]12CCC(=O)C=C1CC[C@@H]1[C@@H]2C(=O)C[C@@]2(C)[C@H]1CC[C@]2(O)C(=O)CO,T/C,[14],103 % of control
same,T/C,[15],102 % of control
same,T/C,[16],123 % of control and 102 % of control
same,T/C,[17],111 % of control
same,T/C,[18],116 % of control
O=c1[nH]c(=O)n(C2CC(O)C(CO)O2)cc1F (stereo not drawn),T/C,"dose: 5.0 mg/kg/injection, schedule: Q01DX010 (ip), vehicle: saline",110 % of control
same,T/C,[5],124 % of control
same,T/C,[6],120 % of control and 104 % of control
same,T/C,[7],122 % of control
same,T/C,[8],110 % of control
same,T/C,"dose: 40.0 mg/kg/injection, schedule: Q01DX010 (ip), vehicle: saline",155 % of control and 250 % of control
same,T/C,[2],172 % of control
CSCS(=O)C[C@H](CO)NC(=O)/C=C/c1c(C)[nH]c(=O)[nH]c1=O (stereo partly drawn),T/C,"dose: 0.06 mg/kg/injection, schedule: Q01DX Z (ip), vehicle: saline",92 % of control
same,T/C,"dose: 0.12 mg/kg/injection, schedule: Q01DX Z (ip), vehicle: saline",93 % of control
same,T/C,"dose: 0.25 mg/kg/injection, schedule: Q01DX Z (ip), vehicle: saline",107 % of control and 97 % of control
same,T/C,[9],92 % of control and 102 % of control
same,T/C,[4],90 % of control
NC(=O)c1cn(C2OC(CO)C(O)C2O)c2ncnc(N)c12 (stereo not drawn),T/C,"dose: 0.25 mg/kg/injection, schedule: Q01DX Z (ip), vehicle: carboxymethylcellulose (CMC)",102 % of control
C[C@]12C=CC(=O)C=C1CC[C@@H]1[C@@H]2C(=O)C[C@@]2(C)[C@H]1CC[C@]2(O)C(=O)CO,T/C,[14],114 % of control
same,T/C,"dose: 12.5 mg/kg/injection, schedule: Q01DX010 (sc), vehicle: steriod suspending solution",93 % of control and 100 % of control
same,T/C,[15],111 % of control and 124 % of control
same,T/C,"dose: 25.0 mg/kg/injection, schedule: Q01DX010 (sc), vehicle: steriod suspending solution",112 % of control and 100 % of control and 101 % of control
same,T/C,[16],105 % of control and 117 % of control
same,T/C,"dose: 50.0 mg/kg/injection, schedule: Q01DX010 (sc), vehicle: steriod suspending solution",107 % of control and 95 % of control and 100 % of control
same,T/C,[17],105 % of control and 91 % of control
same,T/C,"dose: 100.0 mg/kg/injection, schedule: Q01DX010 (sc), vehicle: steriod suspending solution",112 % of control and 92 % of control and 93 % of control
same,T/C,[18],92 % of control and 102 % of control
same,T/C,"dose: 200.0 mg/kg/injection, schedule: Q01DX010 (sc), vehicle: steriod suspending solution",92 % of control and 93 % of control
same,T/C,"dose: 200.0 mg/kg/injection, schedule: Q01DX Z (sc), vehicle: steriod suspending solution",98 % of control
COc1cc2c(c(OC)c1OC)-c1ccc(N)c(=O)cc1[C@@H](NC(C)=O)CC2,T/C,"dose: 0.5 mg/kg/injection, schedule: Q01DX010 (ip), vehicle: saline",177 % of control
same,T/C,"dose: 1.0 mg/kg/injection, schedule: Q01DX010 (ip), vehicle: saline",188 % of control and 250 % of control
same,T/C,"dose: 2.0 mg/kg/injection, schedule: Q01DX010 (ip), vehicle: saline",100 % of control
O=P1(N(CCCl)CCCl)NCCCO1 (stereo not drawn),T/C,"dose: 3.12 mg/kg/injection, schedule: Q01DX Z (ip), vehicle: saline",110 % of control
same,T/C,"dose: 6.25 mg/kg/injection, schedule: Q01DX Z (ip), vehicle: saline",119 % of control
same,T/C,"dose: 6.3 mg/kg/injection, schedule: Q01DX Z (ip), vehicle: saline",102 % of control
same,T/C,"dose: 11.3 mg/kg/injection, schedule: Q01DX010 (ip), vehicle: saline",113 % of control and 117 % of control (2×)
same,T/C,"dose: 22.5 mg/kg/injection, schedule: Q01DX010 (ip), vehicle: saline",107 % of control and 120 % of control and 121 % of control
same,T/C,"dose: 45.0 mg/kg/injection, schedule: Q01DX010 (ip), vehicle: saline",105 % of control and 107 % of control
same,T/C,"dose: 90.0 mg/kg/injection, schedule: Q01DX010 (ip), vehicle: saline",105 % of control and 90 % of control
same,T/C,"dose: 100.0 mg/kg/injection, schedule: Q01DX Z (ip), vehicle: saline",115 % of control
same,T/C,"dose: 180.0 mg/kg/injection, schedule: Q01DX010 (ip), vehicle: saline",87 % of control
CS(=O)(=O)OCC(O)C(O)C(O)C(O)COS(C)(=O)=O (stereo not drawn),T/C,"dose: 25.0 mg/kg/injection, schedule: Q01DX010 (ip), vehicle: saline",110 % of control
same,T/C,[10],110 % of control and 100 % of control
same,T/C,[11],110 % of control and 105 % of control
same,T/C,[12],111 % of control and 120 % of control
same,T/C,[13],111 % of control
